Data taken from patent US9765105B2, “Macrolide compound” (Pulike Biological Engineering, Inc., priority 2013, dated 2017).

Key:
Test in all cases: in vitro susceptibility, MIC by mini broth dilution
Format in all cases: cell-based
[1] = system: Staphylococcus aureus CVCC26003; conditions: strain CVCC26003
Method: (§1) in vitro tests of susceptibility of the compounds according to the present disclosure against bacterial strains commonly used in laboratories. In accordance with the Performance Standards for Antimicrobial Disk Susceptibility Tests: Approved Standard published by the US National Committee for Clinical Laboratory Standards, the antibacterial activities of compounds prepared according to examples 5 to 187 were tested. The MICs (minimum inhibitory concentration) of the medicaments prepared according to the examples on the following bacterial strains were measured through mini broth dilution technique. Staphylococcus aureus CVCC26003, Streptococcus equines CVCC556. Actinobacillus pleuropneumoniae CVCC262, Haemophilus parasuis, and Pasteurella multocida CVCC399, which were purchased from the Control Institute of Veterinary Bioproducts and Pharmaceuticals, China. 4.1.1 Culture Medium for Staphylococcus aureus CVCC26003 Liquid culture medium: CAMHB. […] Solid culture medium: NINA prepared according to the specification of the final product. The strains were taken out of a refrigerator at −20° C. to be revived, and were spreaded by streaking on the solid culture medium with an inoculating loop. The inoculated culture medium was cultured at 35° C. in a constant temperature incubator for 20 h. […] were selected from a well-grown culture plate and streaked on the solid culture medium. The inoculated culture medium was cultured at 35° C. in the constant temperature incubator for 20 h. […] A 96-well plate was used, and 100 μl of DMSO was added into each of wells 2 to 11, and 200 μl of ready-prepared medicament solution was added into the 1st well, 100 μl of the medicament solution was extracted from the 1st well and added into the 2nd well. Double dilution was performed until the 11th well, thereby forming 11 gradients. In this case, compound of parent plate was prepared. 3 μl of double diluted medicament solution was extracted with a 12-channel pipettor and added into wells 1-11 of a new disposable 96-well culture plate. The 12th well thereof is a control well. For each medicament, there are two adjacent rows which are parallel. The transferred compound plate was reserved for later use. […] The dilution ratio was recorded, and the bacterial liquid for the tests was diluted according to the recorded dilution ratio. Subsequently, the bacterial suspension and the liquid culture medium were diluted in the proportion of 1:200. The diluted solution was reserved for later use.

[2] = system: Streptococcus equines CVCC556; conditions: strain CVCC556
Method: as §1, with “China. 4.1.2” for “China. 4.1.1”, “Culture Media” for “Culture Medium”, “for the Rest Four Bacterial Strains.” for “for Staphylococcus aureus CVCC26003”, “medium:” for “medium: CAMHB.”, “medium: […]” for “medium: NINA prepared according to the specification of the final product.”

[3] = system: Pasteurella multocida CVCC399; conditions: strain CVCC399
Method: as §1, with “China. 4.1.2” for “China. 4.1.1”, “Culture Media” for “Culture Medium”, “for the Rest Four Bacterial Strains.” for “for Staphylococcus aureus CVCC26003”, “medium:” for “medium: CAMHB.”, “medium: […]” for “medium: NINA prepared according to the specification of the final product.”

Haemophilus parasuis = system: Haemophilus parasuis
Method: as §1, with “China. 4.1.2” for “China. 4.1.1”, “Culture Media” for “Culture Medium”, “for the Rest Four Bacterial Strains.” for “for Staphylococcus aureus CVCC26003”, “medium:” for “medium: CAMHB.”, “medium: […]” for “medium: NINA prepared according to the specification of the final product.”

[4] = system: Actinobacillus pleuropneumoniae CVCC262; conditions: strain CVCC262
Method: as §1, with “China. 4.1.2” for “China. 4.1.1”, “Culture Media” for “Culture Medium”, “for the Rest Four Bacterial Strains.” for “for Staphylococcus aureus CVCC26003”, “medium:” for “medium: CAMHB.”, “medium: […]” for “medium: NINA prepared according to the specification of the final product.”

| Compound | MIC values, Staphylococcus aureus CVCC26003 [1] | MIC values, Streptococcus equines CVCC556 [2] | MIC values, Pasteurella multocida CVCC399 [3] | MIC values, Haemophilus parasuis (Haemophilus parasuis) | MIC values, Actinobacillus pleuropneumoniae CVCC262 [4] [ug/mi] |
| --- | --- | --- | --- | --- | --- |
| CC[C@H]1OC(=O)[C@H](C)[C@@H](O[C@H]2C[C@@](C)(OC)[C@](O)(CNCc3cccnc3)[C@H](C)O2)[C@H](C)[C@@H](O[C@@H]2O[C@H](C)C[C@H](N(C)C)[C@H]2O)[C@](C)(O)C[C@@H](C)NC[C@H](C)[C@@H](O)[C@]1(C)O [syzx-21, (2R,3S,4R,5S,8R,10R,11R,12S,13S,14R)-13-[(2,6-dideoxy-3-C-methyl-3-O-methyl-4-C-[(3-pyridinylmethylamino)methyl]-α-L-ribopyranosyl)oxy]-2-ethyl-3,4,10-trihydroxy-3,5,8,10,12,14-hexamethyl-11-[[3,4,6-trideoxy-3-(dimethylamino)-β-D-xylo-hexopyranosy]oxy]-1-oxa-7-azacyclopentadecan-15-one] | 0.5 ug/mi | ≦0.25 ug/mi | ≦0.25 ug/mi | ≦0.25 ug/mi | 32 |
| CCOCCCNCC1(O)C(C)OC(OC2C(C)C(=O)OC(CC)C(C)(O)C(O)C(C)CNC(C)CC(C)(O)C(OC3OC(C)CC(N(C)C)C3O)C2C)CC1(C)OC [syzx-22, (2R,3S,4R,5S,8R,10R,11R,12S,13S,14R)-13-[(2,6-dideoxy-3-C-methyl-3-O-methyl-4-C-[(3-ethoxypropyl)amino)methyl]-α-L-ribopyranosyl)oxy]-2-ethyl-3,4,10-trihydroxy-3,5,8,10,12,14-hexamethyl-11-[[3,4,6-trideoxy-3-(dimethylamino)-β-D-xylo-hexopyranosy]oxy]-1-oxa-7-azacyclopentadecan-15-one] | 1 ug/mi | 0.5 ug/mi | 0.5 ug/mi | ≦0.25 ug/mi | 8 |
| CC[C@H]1OC(=O)[C@H](C)[C@@H](O[C@H]2C[C@@](C)(OC)[C@](O)(CNCc3ccccc3OC)[C@H](C)O2)[C@H](C)[C@@H](O[C@@H]2O[C@H](C)C[C@H](N(C)C)[C@H]2O)[C@](C)(O)C[C@@H](C)NC[C@H](C)[C@@H](O)[C@]1(C)O [syzx-27] | 0.5 ug/mi | ≦0.25 ug/mi | 0.5 ug/mi | ≦0.25 ug/mi | 4 |
| CC[C@H]1OC(=O)[C@H](C)[C@@H](O[C@H]2C[C@@](C)(OC)[C@](O)(CNCCNC)[C@H](C)O2)[C@H](C)[C@@H](O[C@@H]2O[C@H](C)C[C@H](N(C)C)[C@H]2O)[C@](C)(O)C[C@@H](C)NC[C@H](C)[C@@H](O)[C@]1(C)O [syzx-29] | 1 ug/mi | 0.5 ug/mi | 2 ug/mi | 0.5 ug/mi | 16 |
| CC[C@H]1OC(=O)[C@H](C)[C@@H](O[C@H]2C[C@@](C)(OC)[C@](O)(CNCc3ccc(F)cc3F)[C@H](C)O2)[C@H](C)[C@@H](O[C@@H]2O[C@H](C)C[C@H](N(C)C)[C@H]2O)[C@](C)(O)C[C@@H](C)NC[C@H](C)[C@@H](O)[C@]1(C)O [syzx-31] | ≦0.25 ug/mi | ≦0.25 ug/mi | ≦0.25 ug/mi | ≦0.25 ug/mi | 1 |
| CC[C@H]1OC(=O)[C@H](C)[C@@H](O[C@H]2C[C@@](C)(OC)[C@](O)(CNc3ccc(Cl)nn3)[C@H](C)O2)[C@H](C)[C@@H](O[C@@H]2O[C@H](C)C[C@H](N(C)C)[C@H]2O)[C@](C)(O)C[C@@H](C)NC[C@H](C)[C@@H](O)[C@]1(C)O [syzx-32, (2R,3S,4R,5S,8R,10R,11R,12S,13S,14R)-13-[(2,6-dideoxy-3-C-methyl-3-O-methyl-4-C-[(6-chloro-pyridazin-3-yl-amino)-methyl]-α-L-ribopyranosyl)oxy]-2-ethyl-3,4,10-trihydroxy-3,5,8,10,12,14-hexamethyl-11-[[3,4,6-trideoxy-3-(dimethylamino)-β-D-xylo-hexopyranosy]oxy]-1-oxa-7-azacyclopentadecan-15-one] | 0.5 ug/mi | 0.25 ug/mi | 1 ug/mi | 0.25 ug/mi | 0.5 |
| CC[C@H]1OC(=O)[C@H](C)[C@@H](O[C@H]2C[C@@](C)(OC)[C@](O)(CNC(C)CCc3ccccc3)[C@H](C)O2)[C@H](C)[C@@H](O[C@@H]2O[C@H](C)C[C@H](N(C)C)[C@H]2O)[C@](C)(O)C[C@@H](C)NC[C@H](C)[C@@H](O)[C@]1(C)O (stereo partly drawn) [syzx-34, (2R,3S,4R,5S,8R,10R,11R,12S,13S,14R)-13-[(2,6-dideoxy-3-C-methyl-3-O-methyl-4-C-[[(1-methyl-3-phenyl)propyl-amino]-methyl]-α-L-ribopyranosyl)oxy]-2-ethyl-3,4,10-trihydroxy-3,5,8,10,12,14-hexamethyl-11-[[3,4,6-trideoxy-3-(dimethylamino)-β-D-xylo-hexopyranosy]oxy]-1-oxa-7-azacyclopentadecan-15-one] | 8 ug/mi | 0.5 ug/mi | 16 ug/mi | 4 ug/mi | 8 |
| CC[C@H]1OC(=O)[C@H](C)[C@@H](O[C@H]2C[C@@](C)(OC)[C@](O)(CNC(=O)C(F)(F)F)[C@H](C)O2)[C@H](C)[C@@H](O[C@@H]2O[C@H](C)C[C@H](N(C)C)[C@H]2O)[C@](C)(O)C[C@@H](C)NC[C@H](C)[C@@H](O)[C@]1(C)O [syzx-37, (2R,3S,4R,5S,8R,10R,11R,12S,13S,14R)-13-[(2,6-dideoxy-3-C-methyl-3-O-methyl-4-C-[[2,2,2-trifluoroacetyl-amino]-methyl]-α-L-ribopyranosyl)oxy]-2-ethyl-3,4,10-trihydroxy-3,5,8,10,12,14-hexamethyl-11-[[3,4,6-trideoxy-3-(dimethylamino)-β-D-xylo-hexopyranosy]oxy]-1-oxa-7-azacyclopentadecan-15-one] | 0.5 ug/mi | ≦0.25 ug/mi | 1 ug/mi | 0.5 ug/mi | 32 |
| CC[C@H]1OC(=O)[C@H](C)[C@@H](O[C@H]2C[C@@](C)(OC)[C@](O)(CNc3ccnc(Cl)c3)[C@H](C)O2)[C@H](C)[C@@H](O[C@@H]2O[C@H](C)C[C@H](N(C)C)[C@H]2O)[C@](C)(O)C[C@@H](C)NC[C@H](C)[C@@H](O)[C@]1(C)O [syzx-38] | 1 ug/mi | 0.5 ug/mi | 0.5 ug/mi | 0.5 ug/mi | 32 |
